Patent US8383647B2, “Quinoline derivative” (Takeda Pharmaceutical Company Limited, priority 2009, dated 2013)
“And” between values parts separate entries of the source, which are not always exact repeats. Equal values may be shown once. Marks after values point to notes of the source that are not given here.

Key:
[1] = molecular target: T1, HERG (Homo sapiens, UniProt Q12809); assay: Evaluation of HERG inhibitory activity (whole-cell patch clamp, HERG.T.HEK cells); format: cell-based; details: peak tail current
T1 construct: host or cells: HERG.T.HEK (HEK cells, Geneticin-selected)
T1 sequence (Q12809 whole entry): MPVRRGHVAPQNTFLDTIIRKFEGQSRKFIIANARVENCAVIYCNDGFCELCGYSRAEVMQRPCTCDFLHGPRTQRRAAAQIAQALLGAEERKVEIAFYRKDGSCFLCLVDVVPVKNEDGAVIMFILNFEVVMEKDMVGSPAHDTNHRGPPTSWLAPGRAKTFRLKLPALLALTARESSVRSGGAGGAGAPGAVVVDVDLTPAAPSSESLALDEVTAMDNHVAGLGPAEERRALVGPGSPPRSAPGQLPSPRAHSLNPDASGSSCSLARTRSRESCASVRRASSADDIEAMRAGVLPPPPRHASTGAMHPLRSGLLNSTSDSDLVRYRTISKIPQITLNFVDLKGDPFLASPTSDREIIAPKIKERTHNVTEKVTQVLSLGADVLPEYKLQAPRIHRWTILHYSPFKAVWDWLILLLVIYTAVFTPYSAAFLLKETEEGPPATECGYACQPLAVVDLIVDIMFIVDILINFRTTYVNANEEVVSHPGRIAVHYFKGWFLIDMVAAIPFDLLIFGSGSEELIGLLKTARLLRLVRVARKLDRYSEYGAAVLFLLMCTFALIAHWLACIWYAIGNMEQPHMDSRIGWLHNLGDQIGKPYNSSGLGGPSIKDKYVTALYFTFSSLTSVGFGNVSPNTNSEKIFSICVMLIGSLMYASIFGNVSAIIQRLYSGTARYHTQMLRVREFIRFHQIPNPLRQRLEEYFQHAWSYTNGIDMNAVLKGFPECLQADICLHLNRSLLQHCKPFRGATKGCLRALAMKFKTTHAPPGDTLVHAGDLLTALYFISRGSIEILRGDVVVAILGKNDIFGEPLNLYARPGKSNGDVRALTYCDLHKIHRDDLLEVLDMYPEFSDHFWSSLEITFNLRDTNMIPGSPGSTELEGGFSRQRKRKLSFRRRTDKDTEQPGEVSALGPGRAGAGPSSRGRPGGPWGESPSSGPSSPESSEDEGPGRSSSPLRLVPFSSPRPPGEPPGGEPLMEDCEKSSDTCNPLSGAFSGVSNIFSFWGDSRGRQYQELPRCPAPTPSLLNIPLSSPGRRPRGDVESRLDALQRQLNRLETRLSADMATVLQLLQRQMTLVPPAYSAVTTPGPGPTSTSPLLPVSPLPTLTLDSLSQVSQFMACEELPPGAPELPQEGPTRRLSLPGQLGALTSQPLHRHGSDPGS
Source text: MEM medium, MEM nonessential amino acid solution, sodium pyruvate solution and G418 sulfate solution (Geneticin) were purchased from Invitrogen Corporation (Carlsbad, Calif.). Bovine serum albumin (BSA, Fatty Acid Free) was a product of Wako Pure Chemical Industries, Ltd. (Osaka, Japan). Fetal bovine serum (FCS) was a product of Trau Scientific Ltd. (Melbourne, Australia).
As HERG expression cell HERG.T.HEK, the cell obtained from Wisconsin ALUMNI Research Foundation was used. HERG.T.HEK was maintained and passaged at 37° C. in the presence of 5% CO2 using an MEM medium containing 10% FCS, 1 mM MEM nonessential amino acid, 1 mM sodium pyruvate and 500 μg/ml Geneticin.
80-90% confluent cells were collected by a trypsin treatment and plated on an IVF dish (Falcon, Franklin Lakes, N.J.). After 2-3 hr, cells were adhered to a glass electrode (resistance value 2-3 MΩ) filled with an electrode internal fluid (7 mM NaCl, 130 mM KCl, 1 mM MgCl2, 5 mM HEPES, 5 mM EGTA, 5 mM ATP-Na: pH 7.2) while perfusing with an extracellular fluid (137 mM NaCl, 4 mM KCl, 1 mM MgCl2, 1.8 mM CaCl2, 10 mM HEPES, 11 mM dextrose: pH 7.4), using a patch clamp amplifier AXOPATCH 200B (Axon instruments, Foster City, Calif.), whereby formation of whole-cell configuration and stimulation by voltage clamp protocol were performed (holding potential −75 mV, primary voltage 10 mV: 0.5 sec, secondary voltage −40 mV: 0.5 sec, stimulation frequency 5 sec (Example 31 and Example 50) or 10 sec (Comparative Example 1 and Comparative Example 2). A preliminary stimulation was applied and the HERG electric current value (peak tail current) was measured when the electric current waveform was stabilized.
For measurement of the HERG electric current with addition of the test compound, the cells were first perfused with the extracellular fluid and, when the waveform was stabilized, the cells were perfused with an extracellular fluid containing 10 μm of a test compound. When the electric current waveform was stabilized under respective perfuse conditions, the HERG electric current was measured.
The HERG electric current inhibitory rate (%) of the test compound was calculated with the HERG electric current value without addition of the test compound as 100%.

[2] = test system: HepG2 cells; assay: Evaluation of PLsis (NBD-PE uptake); format: cell-based; details: 24 hr exposure, relative to 10 μM Amiodarone, maximum value per unit concentration
Procedure: DMEM medium, L-glutamine, penicillin-streptomycin, pyruvic acid, and N-(7-nitrobenz-2-oxa-1,3-diazol-4-yl)-1,2-hexadecanoyl-sn-glycero-3-phosphoethanolamine triethylammonium salt (NBD-PE) were purchased from Invitrogen Corporation. As bovine serum albumin (BSA), a product of Thermo Trace Ltd. (Melbourne, Australia) was used, and as Amiodarone, a product of ICN (Costa Mesa, Calif.) was used. A test compound was used in the form of a 10 mM DMSO solution.
FBS was added at a final concentration of 5 vol % to DMEM medium supplemented with L-glutamine, pyruvic acid and penicillin-streptomycin and subjected to the experiment. Culture was performed using 5% carbon dioxide gas-95% air as a gas phase in a CO2 incubator at 37° C. HepG2 cells were suspended in a culture medium at 50×10^4 cells/mL, plated in a 96 well plate at 50 μL/well and precultured for 24 hr. After preculture, the culture medium was removed, a culture medium containing 60 μm NBD-PE was added at 50 μL/well, and a culture medium containing 0, 6 μM or 20 μM test compounds were each added at 50 μL/well to HepG2 cells, and the cells were cultured for 24 hr. As a positive control, Amiodarone was used at a final concentration of 10 μM.
After exposure to the test compound for 24 hr, the fluorescence intensity (Ex. 485 nm, Em. 538 nm) of NBD-PE uptaken by the cells was measured by a fluorometer. The measurement value with addition of 0 μM test compound solution was subtracted as a blank, a relative value to the measurement value with addition of 10 μm Amiodarone was calculated, and the maximum value per unit concentration of the test compound was obtained as a phospholipidosis (PLsis) induction potential.

[3] = molecular target: human SLC-1 (Homo sapiens, UniProt Q99705); assay: MCH receptor antagonistic activity (inhibitory activity, Experimental Example 1); format: biochemical
Chain of human SLC-1 (Q99705 whole entry): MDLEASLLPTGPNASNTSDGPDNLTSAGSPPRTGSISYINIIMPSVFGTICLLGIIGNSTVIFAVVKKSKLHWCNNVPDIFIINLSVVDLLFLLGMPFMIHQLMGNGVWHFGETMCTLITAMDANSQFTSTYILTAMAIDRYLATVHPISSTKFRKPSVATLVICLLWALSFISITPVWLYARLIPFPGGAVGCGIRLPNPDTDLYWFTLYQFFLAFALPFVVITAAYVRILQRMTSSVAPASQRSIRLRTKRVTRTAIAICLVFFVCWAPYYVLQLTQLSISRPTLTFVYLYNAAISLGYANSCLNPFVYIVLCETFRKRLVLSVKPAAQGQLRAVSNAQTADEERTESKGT

[4] = test system: Male F344/Jcl rats fed on high-fat diet; assay: Evaluation of anorectic effect using male F344/Jcl rats fed on high-fat diet; format: in vivo; details: 10 mg/kg by gavage, two administrations; food intake from initial administration to 48 hr; relative to control group; obese rat model
Procedure: Male F344/Jcl rats (42-week-old) loaded with a high-fat diet (Research Diets: D12451) from 5 weeks of age were used. From 2 weeks before the start of experiment, the rats were independently raised, a powder high-fat diet (Research Diets: D12451M) was given, tap water (0.5 mL) was administered for acclimation, and thereby the rats were habituated. The food intake from 14:00 the day before the start of experiment to 9:00 the next day was measured, and the rats were grouped based on the food intake and the body weight of the previous day as indices. On the day of the start of experiment and the next day at 16:00, 0.5% methylcellulose solution was administered by gavage to the control group, and 0.5% methylcellulose suspension (10 mg/kg) of the compound was administered by gavage to the compound administration group at 2 mL/kg (6 per group for both control group and compound administration group). The food intake from the initial administration to 48 hr later was measured. The food intake inhibition rate of each compound administration group to the control group was calculated.

[5] = molecular target: rat SLC-1 (Rattus norvegicus, UniProt P97639); assay: MCH receptor antagonistic activity (inhibitory activity, Experimental Example 1); format: biochemical
Chain of rat SLC-1 (P97639 whole entry): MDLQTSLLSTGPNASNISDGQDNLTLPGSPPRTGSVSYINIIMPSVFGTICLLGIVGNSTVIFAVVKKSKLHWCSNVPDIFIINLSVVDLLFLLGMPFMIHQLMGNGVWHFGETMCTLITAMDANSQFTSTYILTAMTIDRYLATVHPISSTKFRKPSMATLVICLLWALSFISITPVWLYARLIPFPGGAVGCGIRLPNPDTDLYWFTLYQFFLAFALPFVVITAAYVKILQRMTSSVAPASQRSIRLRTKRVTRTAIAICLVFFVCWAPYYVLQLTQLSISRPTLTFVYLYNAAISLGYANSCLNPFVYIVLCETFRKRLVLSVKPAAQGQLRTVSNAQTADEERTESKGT

PLsis induction potential [2] | IC50 [3] [nM] | melting point | IC50 [5] [nM] | SMILES | HERG electric current inhibitory rate (%) of 10 μM compound [1] [%] | food intake inhibition rate (%) [4]
1.4 | 2.9 | 165 °C and 169 °C | 3.9 | Cc1c(NC(=O)c2ccc(OC[C@@H]3CCCO3)cc2)ccc2cc(CN[C@H]3CC[C@](C)(O)CC3)cnc12 [Example 50, N-(3-{[(trans-4-hydroxy-4-methylcyclohexyl)amino]methyl}-8-methylquinolin-7-yl)-4-[(2S)-tetrahydrofuran-2-ylmethoxy]benzamide] | 2.1 | 30.3*** %
23.5 | – | – | – | Cc1c(NC(=O)c2ccc(OCC3CC3)cc2)ccc2cc(CN[C@H]3CC[C@H](O)CC3)cnc12 [Com. Ex. 1, 4-(cyclopropylmethoxy)-N-[3-[[(trans-4-hydroxycyclohexyl)amino]methyl]-8-methylquinolin-7-yl]benzamide, reference compound] | 58 | –
1.7 | 3.1 | 158 to 159 °C | 4.3 | Cc1c(NC(=O)c2ccc(OC[C@@H]3CCCO3)cc2)ccc2cc(CNC3CCOCC3)cnc12 [Example 31, N-{8-methyl-3-[(tetrahydro-2H-pyran-4-ylamino)methyl]quinolin-7-yl}-4-[(2S)-tetrahydrofuran-2-ylmethoxy]benzamide] | 9.8 | 24.8*** %

SMILES | PLsis induction potential [2] | IC50 [3] [nM] | melting point | IC50 [5] [nM] | HERG electric current inhibitory rate (%) of 10 μM compound [1] [%] | food intake inhibition rate (%) [4]
Cc1c(NC(=O)c2ccc(OCC3CC3)cc2)ccc2cc(CNC3CCC(C)(O)CC3)cnc12 (stereo not drawn) [Com. Ex. 2, 4-(cyclopropylmethoxy)-N-[3-[[(trans-4-hydroxy-4-methylcyclohexyl)amino]methyl]-8-methylquinolin-7-yl]benzamide, reference compound] | 27.8 | – | – | – | 44.9 | –
